This passage reports IC50 results from patent US10738056B2 (Aduro BioTech, Inc., priority 2017, dated 2020).

Broadly, the IC50 is the concentration that gives 50% inhibition.

The assay deals with Human cGAS amino acids 155-522 (Homo sapiens (Human), UniProt Q8N884). Briefly: cGAS biochemical activity assay (ATP remaining, Kinase-Glo Max luminescence). Particulars: human cGAS 155-522, ATP remaining (Kinase-Glo Max); read-out: cGAS IC50.
Human cGAS amino acids 155-522, sequence (Q8N884 157-522): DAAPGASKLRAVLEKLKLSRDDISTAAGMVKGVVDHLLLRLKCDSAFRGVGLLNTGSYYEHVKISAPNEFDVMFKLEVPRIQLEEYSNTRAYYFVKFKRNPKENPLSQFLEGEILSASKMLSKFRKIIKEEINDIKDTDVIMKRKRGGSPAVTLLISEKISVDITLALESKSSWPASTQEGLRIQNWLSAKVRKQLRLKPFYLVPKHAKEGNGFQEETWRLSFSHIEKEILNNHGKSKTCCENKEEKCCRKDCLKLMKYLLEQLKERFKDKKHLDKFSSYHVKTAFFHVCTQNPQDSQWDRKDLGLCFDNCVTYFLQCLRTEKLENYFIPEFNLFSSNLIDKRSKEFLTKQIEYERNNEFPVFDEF
For `Cc1[nH]c2c(-c3ccccc3)c(C(F)(F)F)nn2c(=O)c1-c1nnc(-c2cccc(N)c2)o1` [Compound D1079, 6-(5-(3-aminophenyl)-1,3,4-oxadiazol-2-yl)-5-methyl-3-phenyl-2-(trifluoromethyl)pyrazolo[1,5-a]pyrimidin-7(4H)-one], the IC50 is greater than 250 µM.
`COc1cccc2oc(-c3c(C)[nH]c4c(-c5ccccc5)c(OC5CCOCC5)nn4c3=O)nc12` [Compound C1080, 6-(4-methoxybenzo[d]oxazol-2-yl)-5-methyl-3-phenyl-2-((tetrahydro-2H-pyran-4-yl)oxy)pyrazolo[1,5-a]pyrimidin-7(4H)-one]: the IC50 is 20 to 250 µM.
On to `COC1CCCCC1NC(=O)c1c(C)[nH]c2c(-c3ccccc3)c(C(F)(F)F)nn2c1=O` (single isomer, unassigned) [Compound A1085, N-(2-methoxycyclohexyl)-5-methyl-7-oxo-3-phenyl-2-(trifluoromethyl)-4,7-dihydropyrazolo[1,5-a]pyrimidine-6-carboxamide], for which the 50% inhibitory concentration (IC50) lay in the range of 20 to 250 µM.
To `Cc1[nH]c2c(-c3ccccc3)c(C(F)(F)F)nn2c(=O)c1-c1nnc(C(C)C)o1` [Compound D1005, 6-(5-isopropyl-1,3,4-oxadiazol-2-yl)-5-methyl-3-phenyl-2-(trifluoromethyl)pyrazolo[1,5-a]pyrimidin-7(4H)-one] belongs 20 to 250 µM; to `COc1cccc2c1CN(c1c(C)[nH]c3c(-c4ccccc4)c(C(F)(F)F)nn3c1=O)C2=O` [Compound C1220, 6-(4-methoxy-1-oxoisoindolin-2-yl)-5-methyl-3-phenyl-2-(trifluoromethyl)pyrazolo[1,5-a]pyrimidin-7(4H)-one], 20 to 250 µM; to `Cc1[nH]c2c(-c3ccccc3)c(C(F)(F)F)nn2c(=O)c1Cc1nnc(C2CCCCC2)o1` [Compound D1035, 6-((5-cyclohexyl-1,3,4-oxadiazol-2-yl)methyl)-5-methyl-3-phenyl-2-(trifluoromethyl)pyrazolo[1,5-a]pyrimidin-7(4H)-one], 20 to 250 µM.
For `Cc1[nH]c2c(C3CCCC3)c(C(F)(F)F)nn2c(=O)c1-c1ccccc1` [Compound C1266, 3-cyclopentyl-5-methyl-6-phenyl-2-(trifluoromethyl)pyrazolo[1,5-a]pyrimidin-7(4H)-one] the value was greater than 250 µM.
For `Cc1[nH]c2c(-c3ccccc3)c(C(F)(F)F)nn2c(=O)c1C(=O)Nc1ccn(C2CCCCC2)n1` [Compound A1041, N-(1-cyclohexyl-1H-pyrazol-3-yl)-5-methyl-7-oxo-3-phenyl-2-(trifluoromethyl)-4,7-dihydropyrazolo[1,5-a]pyrimidine-6-carboxamide] the value was 20 to 250 µM.
Consider `Cc1[nH]c2c(-c3ccccc3)c(C(F)(F)F)nn2c(=O)c1C(=O)Nc1ccon1` [Compound A1020, N-(isoxazol-3-yl)-5-methyl-7-oxo-3-phenyl-2-(trifluoromethyl)-4,7-dihydropyrazolo[1,5-a]pyrimidine-6-carboxamide], for which the IC50 was in the range of 20 to 250 µM.
To `COc1cccc2oc(-c3c(P(C)(C)=O)[nH]c4c(-c5ccccc5)c(C(F)(F)F)nn4c3=O)nc12` [Compound C1284, 5-(dimethylphosphoryl)-6-(4-methoxybenzo[d]oxazol-2-yl)-3-phenyl-2-(trifluoromethyl)pyrazolo[1,5-a]pyrimidin-7(4)-one] belongs less than 20 µM; to `COCCNC(=O)c1[nH]c2c(-c3ccccc3)c(C(F)(F)F)nn2c(=O)c1-c1nc2c(OC)cccc2o1` [Compound C1142, 6-(4-methoxybenzo[d]oxazol-2-yl)-N-(2-methoxyethyl)-7-oxo-3-phenyl-2-(trifluoromethyl)-4,7-dihydropyrazolo[1,5-a]pyrimidine-5-carboxamide], less than 20 µM; to `Cc1[nH]c2c(-c3ccccc3)c(C(F)(F)F)nn2c(=O)c1CC(=O)N1CCN(c2ccccc2)CC1` [Compound B1007, 5-methyl-6-(2-oxo-2-(4-phenylpiperazin-1-yl)ethyl)-3-phenyl-2-(trifluoromethyl)pyrazolo[1,5-a]pyrimidin-7(4H)-one], greater than 250 µM.
For `Cc1[nH]c2c(-c3ccccc3)c(C(F)(F)F)nn2c(=O)c1-c1ccc2nccn2c1` [Compound C1006, 6-(imidazo[1,2-a]pyridin-6-yl)-5-methyl-3-phenyl-2-(trifluoromethyl)pyrazolo[1,5-a]pyrimidin-7(4H)-one] the value was greater than 250 µM; for `COc1cccn2nc(-c3c(C)[nH]c4c(-c5ccccc5)c(C(F)(F)F)nn4c3=O)nc12` [Compound C1110, 6-(8-methoxy-[1,2,4]triazolo[1,5-a]pyridin-2-yl)-5-methyl-3-phenyl-2-(trifluoromethyl)pyrazolo[1,5-a]pyrimidin-7(4H)-one], 20 to 250 µM; for `COCc1nc(-c2c(C)[nH]c3c(-c4ccccc4)c(C(F)(F)F)nn3c2=O)oc1C1CCCCC1` [Compound C1158, 6-(5-cyclohexyl-4-(methoxymethyl)oxazol-2-yl)-5-methyl-3-phenyl-2-(trifluoromethyl)pyrazolo[1,5-a]pyrimidin-7(4H)-one], greater than 250 µM.
Turning to `Cc1[nH]c2c(C3CC3)c(C(F)(F)F)nn2c(=O)c1-c1ccccc1` [Compound C1265, 3-cyclopropyl-5-methyl-6-phenyl-2-(trifluoromethyl)pyrazolo[1,5-a]pyrimidin-7(4H)-one], the IC50 is greater than 250 µM.
To `CC(=O)Nc1ccccc1NC(=O)c1c(C)[nH]c2c(-c3ccccc3)c(C(F)(F)F)nn2c1=O` [Compound A1021, N-(2-acetamidophenyl)-5-methyl-7-oxo-3-phenyl-2-(trifluoromethyl)-4,7-dihydropyrazolo[1,5-a]pyrimidine-6-carboxamide] belongs 20 to 250 µM; to `Cc1[nH]c2c(-c3ccccc3)c(C(F)(F)F)nn2c(=O)c1C(=O)Nc1cccc(N(S(C)(=O)=O)S(C)(=O)=O)c1` [Compound A1046, 5-methyl-N-(3-(N-(methylsulfonyl)methylsulfonamido)phenyl)-7-oxo-3-phenyl-2-(trifluoromethyl)-4,7-dihydropyrazolo[1,5-a]pyrimidine-6-carboxamide], 20 to 250 µM.
To `Cc1cccc(-c2c(C)[nH]c3c(-c4ccccc4)c(C(F)(F)F)nn3c2=O)c1` [Compound C1002, 5-methyl-3-phenyl-6-(m-tolyl)-2-(trifluoromethyl)pyrazolo[1,5-a]pyrimidin-7(4H)-one] belongs 20 to 250 µM.
To `COc1ccnc(-c2nnc(-c3c(C)[nH]c4c(-c5ccccc5)c(C(F)(F)F)nn4c3=O)o2)n1` [Compound D1076, 6-(5-(4-methoxypyrimidin-2-yl)-1,3,4-oxadiazol-2-yl)-5-methyl-3-phenyl-2-(trifluoromethyl)pyrazolo[1,5-a]pyrimidin-7(4H)-one] belongs 20 to 250 µM.
Turning to `Cc1[nH]c2c(-c3ccccc3)c(C#N)nn2c(=O)c1-c1nc2ccccc2n1C1CCCCC1` [Compound C1276, 6-(1-cyclohexyl-1H-benzo[d]imidazol-2-yl)-5-methyl-7-oxo-3-phenyl-4,7-dihydropyrazolo[1,5-a]pyrimidine-2-carbonitrile], the IC50 was less than 20 µM.
For `CO[C@@H]1CCCCC1c1nnc(-c2c(C)[nH]c3c(-c4ccccc4)c(C(F)(F)F)nn3c2=O)o1` (stereo partly shown) [D1046 Iso-2] the value was less than 20 µM; for `COc1ccc(-c2nnc(-c3c(C)[nH]c4c(-c5ccccc5)c(C(F)(F)F)nn4c3=O)o2)cc1` [Compound D1002, 6-(5-(4-methoxyphenyl)-1,3,4-oxadiazol-2-yl)-5-methyl-3-phenyl-2-(trifluoromethyl)pyrazolo[1,5-a]pyrimidin-7(4H)-one], greater than 250 µM.
For `COc1ccc(F)cc1NC(=O)c1c(C)[nH]c2c(-c3ccccc3)c(C(F)(F)F)nn2c1=O` [Compound A1071, N-(5-fluoro-2-methoxyphenyl)-5-methyl-7-oxo-3-phenyl-2-(trifluoromethyl)-4,7-dihydropyrazolo[1,5-a]pyrimidine-6-carboxamide] the value was 20 to 250 µM.
For the compound `COc1cccc2oc(-c3c(C)[nH]c4c(-c5ccccc5)c(C5CC5)nn4c3=O)nc12` [Compound C1242, 2-cyclopropyl-6-(4-methoxybenzo[d]oxazol-2-yl)-5-methyl-3-phenylpyrazolo[1,5-a]pyrimidin-7(4H)-one], the IC50 is greater than 250 µM.
On to `Cc1[nH]c2c(-c3ccccc3)c(C(F)(F)F)nn2c(=O)c1C(=O)Nc1cccnc1` [Compound A1005, 5-methyl-7-oxo-3-phenyl-N-(pyridin-3-yl)-2-(trifluoromethyl)-4,7-dihydropyrazolo[1,5-a]pyrimidine-6-carboxamide], for which the IC50 was in the range of 20 to 250 µM.
To `Cc1[nH]c2c(-c3ccccc3)c(C(F)(F)F)nn2c(=O)c1-c1nnc(N2CCCC(O)C2)o1` (stereo not shown) [Compound D1087, 6-(5-(3-hydroxypiperidin-1-yl)-1,3,4-oxadiazol-2-yl)-5-methyl-3-phenyl-2-(trifluoromethyl)pyrazolo[1,5-a]pyrimidin-7(4H)-one] belongs 20 to 250 µM; to `COc1cccc2oc(-c3c(C)[nH]c4c(-c5ccccc5)c(N)nn4c3=O)nc12` [Compound C1063, 2-amino-6-(4-methoxybenzo[d]oxazol-2-yl)-5-methyl-3-phenylpyrazolo[1,5-a]pyrimidin-7(4H)-one], greater than 250 µM.
To `Cc1[nH]c2c(-c3ccccc3)c(C(F)(F)F)nn2c(=O)c1-c1nnc(N2CCCCC2CCN)o1` (stereo not shown) [Compound D1069, 6-(5-(2-(2-aminoethyl)piperidin-1-yl)-1,3,4-oxadiazol-2-yl)-5-methyl-3-phenyl-2-(trifluoromethyl)pyrazolo[1,5-a]pyrimidin-7(4H)-one] belongs 20 to 250 µM; to `COc1ccc(CN)c2oc(-c3c(C)[nH]c4c(-c5ccccc5)c(C(F)(F)F)nn4c3=O)nc12` [Compound C1191, 6-(7-(aminomethyl)-4-methoxybenzo[d]oxazol-2-yl)-5-methyl-3-phenyl-2-(trifluoromethyl)pyrazolo[1,5-a]pyrimidin-7(4H)-one], greater than 250 µM.
For `Cc1[nH]c2c(-c3ccccc3)c(C(F)(F)F)nn2c(=O)c1N1Cc2ccccc2C1=O` [Compound C1214, 5-methyl-6-(1-oxoisoindolin-2-yl)-3-phenyl-2-(trifluoromethyl)pyrazolo[1,5-a]pyrimidin-7(4H)-one] the value was 20 to 250 µM.
